Assay results from publication PMC9587021, “Construction of a bioluminescence-based assay for bitter taste receptors (TAS2Rs)” (Scientific Reports, 2022).
Each block holds one compound with its values, some of them ahead of it.

Experiments:
[1] = target: T1, TAS2R30 (Homo sapiens, UniProt P59541); test: cell-based; design: bioluminescence intracellular calcium release assay, mt-clytin II with coelenterazine, Gα16-gust44 co-expressed; settings: 293AD cells
T1 sequence (P59541 1-319): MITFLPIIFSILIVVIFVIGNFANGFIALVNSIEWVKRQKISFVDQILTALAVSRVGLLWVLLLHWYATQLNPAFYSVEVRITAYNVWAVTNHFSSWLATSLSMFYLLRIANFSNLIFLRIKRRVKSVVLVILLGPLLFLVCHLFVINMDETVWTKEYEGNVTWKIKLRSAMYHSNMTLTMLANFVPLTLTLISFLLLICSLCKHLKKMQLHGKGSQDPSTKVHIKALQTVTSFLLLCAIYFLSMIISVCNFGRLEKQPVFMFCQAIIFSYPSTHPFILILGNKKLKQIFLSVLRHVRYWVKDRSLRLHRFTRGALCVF
Description: (§1) The bioluminescence-based assay was used to characterize the functional properties of various human TAS2Rs. For each TAS2R, one or more of its cognate agonists were tested against either the AD-293 or 293AD cell line, or both. Both cell lines were used because of their stronger adherent properties, which facilitate media changes on the day of the FLIPR assay. However, because both cell lines are generated differently, some disparities in gene expression capacities due to a myriad of factors could be reasonably expected. Consequently, some TAS2Rs may be well expressed in one cell line but not the other, and the ability of each cell line to express a particular TAS2R needs to be empirically evaluated. […] However, deviations between our experimental and published potency values for some ligands (i.e. TAS2R4: stevioside; TAS2R7: Mg^2+, Mn^2+, Zn^2+) were observed, which could be attributed to the use of a different assay format, readout and processing parameters, use of different cell lines with resultant potential differences in TAS2R expression levels, and quality and methodological differences in ligand preparations. Because potency values could be obtained that were consistent with the literature, or close to the reported minimal effective stimulatory concentration upon further testing of other TAS2R4/7 agonists, the deviation in EC50 values could be largely attributed to qualitative differences in the ligands (Supplementary Fig. S3). Calcium responses induced by the tested cognate agonists reflected specific TAS2R stimulation. […] Poor localization of TAS2Rs to the cell surface in heterologous systems was associated with diminished receptor signaling output and functionality. One of the more commonly used strategies to enhance the density of TAS2Rs at the cell surface involves fusing an N-terminal signal sequence of either the SST3, or Rho receptor to the TAS2R[24]. We adopted this approach, specifically co-expressing SST3-TAS2R with Gα16-gust44 chimera and mt-clytin II, to develop and validate a bioluminescence-based TAS2R intracellular calcium release assay. A strength of the bioluminescence-based TAS2R assay is its capacity to generate greater assay spans than that of fluorescence-based assays, which could be largely attributed to the utilization of mt-clytin II as the calcium reporter. Calcium-binding photoproteins in general are useful reporters for studying calcium-mediated signaling processes. […] Its fast calcium binding and dissociation kinetics render it a suitable indicator to report on swift, transient changes in calcium ion concentrations and study rapid receptor-ligand interactions. Mitochondrial targeting of clytin II was crucial to generating higher luminescence intensity than that of cytosol-localized clytin II, as inositol 1,4,5-triphosphate (IP3)-induced calcium release from the ER subsequent to ligand activation is thought to result in the formation of ER-proximal, calcium-rich microdomains that enabled the closely apposed mitochondria to sense a higher initial rise in calcium concentration than would be experienced by the bulk cytosol.

[2] = target: T2, TAS2R16 (Homo sapiens, UniProt Q9NYV7); test: cell-based; design: bioluminescence intracellular calcium release assay, mt-clytin II with coelenterazine, Gα16-gust44 co-expressed
T2 sequence (Q9NYV7 1-291): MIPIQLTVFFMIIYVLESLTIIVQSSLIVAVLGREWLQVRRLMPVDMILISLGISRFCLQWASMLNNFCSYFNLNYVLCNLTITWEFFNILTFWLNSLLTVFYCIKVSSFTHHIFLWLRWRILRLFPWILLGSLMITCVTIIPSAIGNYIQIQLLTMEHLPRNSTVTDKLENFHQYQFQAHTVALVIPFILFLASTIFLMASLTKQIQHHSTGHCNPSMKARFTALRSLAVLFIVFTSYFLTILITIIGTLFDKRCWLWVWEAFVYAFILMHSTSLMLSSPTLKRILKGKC
Description: as §1

[3] = target: T3, TAS2R10 (Homo sapiens, UniProt Q9NYW0); test: cell-based; design: bioluminescence intracellular calcium release assay, mt-clytin II with coelenterazine, Gα16-gust44 co-expressed
T3 sequence (Q9NYW0 1-307): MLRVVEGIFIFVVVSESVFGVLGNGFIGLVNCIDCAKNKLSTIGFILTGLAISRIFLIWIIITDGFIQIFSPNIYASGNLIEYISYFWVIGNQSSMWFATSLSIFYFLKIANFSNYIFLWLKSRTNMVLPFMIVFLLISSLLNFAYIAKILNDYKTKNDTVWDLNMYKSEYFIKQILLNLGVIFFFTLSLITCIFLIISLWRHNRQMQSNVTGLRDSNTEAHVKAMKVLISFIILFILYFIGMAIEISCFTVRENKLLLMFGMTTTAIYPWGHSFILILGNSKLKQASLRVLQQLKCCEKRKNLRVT
Description: as §1

[4] = target: T4, TAS2R8 (Homo sapiens, UniProt Q9NYW2); test: cell-based; design: bioluminescence intracellular calcium release assay, mt-clytin II with coelenterazine, Gα16-gust44 co-expressed
T4 sequence (Q9NYW2 1-309): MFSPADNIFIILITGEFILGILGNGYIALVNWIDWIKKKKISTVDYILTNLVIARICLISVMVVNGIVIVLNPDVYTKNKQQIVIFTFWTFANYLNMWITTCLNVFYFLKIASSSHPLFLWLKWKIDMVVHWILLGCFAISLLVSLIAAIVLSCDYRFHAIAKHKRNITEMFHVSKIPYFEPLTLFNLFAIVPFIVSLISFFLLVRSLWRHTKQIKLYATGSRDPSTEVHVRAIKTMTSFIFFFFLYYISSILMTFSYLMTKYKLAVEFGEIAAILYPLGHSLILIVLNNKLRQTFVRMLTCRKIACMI
Description: as §1

[5] = target: T5, TAS2R3 (Homo sapiens, UniProt Q9NYW6); test: cell-based; design: bioluminescence intracellular calcium release assay, mt-clytin II with coelenterazine, Gα16-gust44 co-expressed; settings: 293AD cells
T5 sequence (Q9NYW6 1-316): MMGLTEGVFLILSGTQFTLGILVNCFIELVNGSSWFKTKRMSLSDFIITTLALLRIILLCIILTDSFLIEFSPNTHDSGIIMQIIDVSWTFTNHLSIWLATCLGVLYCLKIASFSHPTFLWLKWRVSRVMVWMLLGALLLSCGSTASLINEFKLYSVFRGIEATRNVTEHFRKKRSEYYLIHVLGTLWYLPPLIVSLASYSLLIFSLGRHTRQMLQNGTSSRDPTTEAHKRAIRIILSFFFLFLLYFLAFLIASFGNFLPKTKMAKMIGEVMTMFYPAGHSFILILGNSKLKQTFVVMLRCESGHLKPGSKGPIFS
Description: as §1

[6] = target: T6, TAS2R20 (Homo sapiens, UniProt P59543); test: cell-based; design: bioluminescence intracellular calcium release assay, mt-clytin II with coelenterazine, Gα16-gust44 co-expressed
T6 sequence (P59543 1-309): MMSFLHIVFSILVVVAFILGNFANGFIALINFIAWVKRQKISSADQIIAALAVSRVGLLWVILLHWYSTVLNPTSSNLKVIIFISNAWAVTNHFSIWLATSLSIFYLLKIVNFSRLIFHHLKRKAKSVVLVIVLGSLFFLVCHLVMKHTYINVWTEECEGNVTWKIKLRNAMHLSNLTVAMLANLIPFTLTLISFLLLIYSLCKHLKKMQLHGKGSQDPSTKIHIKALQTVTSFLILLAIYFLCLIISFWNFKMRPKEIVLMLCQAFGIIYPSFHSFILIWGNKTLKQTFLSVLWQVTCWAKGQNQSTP
Description: as §1

[7] = target: T7, TAS2R13 (Homo sapiens, UniProt Q9NYV9); test: cell-based; design: bioluminescence intracellular calcium release assay, mt-clytin II with coelenterazine, Gα16-gust44 co-expressed; settings: 293AD cells
T7 sequence (Q9NYV9 1-303): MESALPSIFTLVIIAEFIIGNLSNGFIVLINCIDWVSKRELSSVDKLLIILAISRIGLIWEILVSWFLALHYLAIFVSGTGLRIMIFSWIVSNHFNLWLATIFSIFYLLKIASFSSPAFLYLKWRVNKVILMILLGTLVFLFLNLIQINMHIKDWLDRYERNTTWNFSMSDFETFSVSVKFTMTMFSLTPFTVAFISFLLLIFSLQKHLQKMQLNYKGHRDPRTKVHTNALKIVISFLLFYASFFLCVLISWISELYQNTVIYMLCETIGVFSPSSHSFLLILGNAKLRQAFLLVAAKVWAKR
Description: as §1

[8] = target: T8, TAS2R14 (Homo sapiens, UniProt Q9NYV8); test: cell-based; design: species or system 293AD; bioluminescence intracellular calcium release assay, mt-clytin II with coelenterazine, Gα16-gust44 co-expressed
T8 sequence (Q9NYV8 1-317): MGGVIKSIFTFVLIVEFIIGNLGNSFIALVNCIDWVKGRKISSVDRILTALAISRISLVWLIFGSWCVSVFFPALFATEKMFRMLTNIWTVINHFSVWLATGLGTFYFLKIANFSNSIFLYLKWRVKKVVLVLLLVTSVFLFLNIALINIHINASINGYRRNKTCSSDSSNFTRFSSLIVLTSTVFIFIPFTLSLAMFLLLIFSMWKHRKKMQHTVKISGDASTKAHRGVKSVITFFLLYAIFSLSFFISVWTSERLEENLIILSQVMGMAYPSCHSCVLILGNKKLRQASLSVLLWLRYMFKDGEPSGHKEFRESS
Description: The bioluminescence-based assay was used to characterize the functional properties of various human TAS2Rs. For each TAS2R, one or more of its cognate agonists were tested against either the AD-293 or 293AD cell line, or both. […] We adopted this approach, specifically co-expressing SST3-TAS2R with Gα16-gust44 chimera and mt-clytin II, to develop and validate a bioluminescence-based TAS2R intracellular calcium release assay.

[9] = target: T9, TAS2R9 (Homo sapiens, UniProt Q9NYW1); test: cell-based; design: bioluminescence intracellular calcium release assay, mt-clytin II with coelenterazine, Gα16-gust44 co-expressed; settings: 293AD cells
T9 sequence (Q9NYW1 1-312): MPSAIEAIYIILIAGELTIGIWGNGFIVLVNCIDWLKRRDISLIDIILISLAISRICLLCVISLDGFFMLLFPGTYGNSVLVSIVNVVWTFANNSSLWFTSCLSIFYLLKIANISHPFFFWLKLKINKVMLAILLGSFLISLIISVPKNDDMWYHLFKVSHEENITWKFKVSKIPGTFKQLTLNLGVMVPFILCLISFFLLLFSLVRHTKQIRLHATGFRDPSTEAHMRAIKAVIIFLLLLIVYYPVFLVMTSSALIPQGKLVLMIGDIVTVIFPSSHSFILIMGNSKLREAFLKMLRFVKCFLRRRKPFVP
Description: as §1

[10] = target: T10, TAS2R43 (Homo sapiens, UniProt P59537); test: bioluminescence (mt-clytin II) intracellular calcium release; format: cell-based
T10 construct: AD-293 cells; co-expressed Galpha16-gust44 chimera and mt-clytin II reporter (type 2 multigene vector)
T10 sequence (P59537 2-309): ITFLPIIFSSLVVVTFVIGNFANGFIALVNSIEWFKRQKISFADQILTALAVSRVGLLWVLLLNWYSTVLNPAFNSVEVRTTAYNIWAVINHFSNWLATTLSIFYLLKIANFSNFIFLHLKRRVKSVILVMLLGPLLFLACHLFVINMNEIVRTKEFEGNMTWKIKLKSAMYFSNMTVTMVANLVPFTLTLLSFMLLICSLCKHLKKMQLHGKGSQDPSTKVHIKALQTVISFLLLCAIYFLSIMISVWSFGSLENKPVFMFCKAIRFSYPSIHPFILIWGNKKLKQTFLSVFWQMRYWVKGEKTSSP
Source text: bioluminescence (mt-clytin II) intracellular calcium release on TAS2R43 | TAS2R43, both aristolochic acid and aloin could be considered full agonists | indicating the partial agonist activity of caffeine towards TAS2R43

EC50 [1]: 3 ± 1 µM
SMILES: C=C[C@H]1[C@H](O[C@@H]2O[C@H](CO)[C@@H](O)[C@H](O)[C@H]2OC(=O)c2c(O)cc(O)cc2-c2cccc(O)c2)OC=C2C(=O)OCC[C@H]21 [Amarogentin]

EC50 ([2]; AD-293 cells): 5000 ± 1200 µM
SMILES: OC[C@H]1O[C@@H](Oc2ccc(O)cc2)[C@H](O)[C@@H](O)[C@@H]1O [Arbutin]

SMILES: COc1cc2c(cc1OC)[C@@]13CCN4CC5=CCO[C@H]6CC(=O)N2[C@H]1[C@H]6[C@H]5C[C@H]43 [Brucine]
EC50 ([3]; 293AD cells): 21 ± 6.5 µM
EC50 ([3]; AD-293 cells): 42 ± 3 µM

EC50 ([4]; 293AD cells): 18 ± 2.7 µM
EC50 ([4]; AD-293 cells): 70 ± 12 µM
SMILES: O=C(N[C@H](CO)[C@H](O)c1ccc([N+](=O)[O-])cc1)C(Cl)Cl [Chloramphenicol]

EC50 [5]: 45 ± 14 µM
SMILES: CCN(CC)CCCC(C)Nc1ccnc2cc(Cl)ccc12 (stereo not shown) [Chloroquine diphosphate]

EC50 ([6]; 293AD cells): 35 ± 7 µM
EC50 ([6]; AD-293 cells): 73 ± 26 µM
SMILES: O=C(O)c1cc(=O)c2c(OCC(O)COc3cccc4oc(C(=O)O)cc(=O)c34)cccc2o1 [Cromolyn]

EC50 ([4]; AD-293 cells): 1000 ± 100 µM
SMILES: CC[N+](CC)(CC(=O)Nc1c(C)cccc1C)Cc1ccccc1 [Denatonium benzoate]

EC50 ([2]; AD-293 cells): 3000 ± 200 µM
SMILES: O=Cc1ccccc1O[C@@H]1O[C@H](CO)[C@@H](O)[C@H](O)[C@H]1O [Helicin]

EC50 [7]: 161 ± 16 µM
SMILES: CC[N+](C)(CC)CCOC(=O)C(O)(c1ccccc1)C1CCCCC1 (stereo not shown) [Oxyphenonium]

SMILES: C=C(C)[C@@H]1[C@H]2OC(=O)[C@@H]1[C@]1(O)C[C@H]3O[C@]34C(=O)O[C@H]2[C@]14C [Picrotoxinin]
EC50 [8]: 54 ± 8.4 µM

EC50 [9]: 4000 ± 400 µM
SMILES: CN1CCN(CC(=O)N2c3ccccc3C(=O)Nc3cccnc32)CC1 [Pirenzepine]

EC50 ([2]; 293AD cells): 400 ± 200 µM
EC50 ([2]; AD-293 cells): 2000 ± 600 µM
SMILES: OCc1ccccc1O[C@@H]1O[C@H](CO)[C@@H](O)[C@H](O)[C@H]1O [Salicin]

EC50 [10]: 5 ± 3 µM
SMILES: O=C1c2c(O)cccc2C([C@@H]2O[C@H](CO)[C@@H](O)[C@H](O)[C@H]2O)c2cc(CO)cc(O)c21 (stereo partly shown) [aloin]

SMILES: COc1cccc2c1cc([N+](=O)[O-])c1c(C(=O)O)cc3c(c12)OCO3 [aristolochic acid]
EC50 [10]: 0.026 ± 0.003 µM

EC50 [10]: 390 ± 120 µM
SMILES: Cn1c(=O)c2c(ncn2C)n(C)c1=O [caffeine]
